In patent US12600716B2 (Gannex Pharma Co., Ltd., priority 2020, dated 2026):
Like-named read-outs stand apart in the source and are kept apart here.

What was measured:
human FXR protein = biological target: T1, human FXR protein (Homo sapiens, UniProt Q96RI1); assay: FXR agonist binding ability: time-resolved fluorescence (LanthaScreen) FXR/coactivator assay; type: biochemical; conditions: GST-labeled human FXR, fluorescein-labeled coactivator, TR-FRET
T1 construct: purchased Invitrogen
Description: FXR Agonist Binding Ability Evaluation of the activation effect of the compound of the present invention with regard to the binding of FXR to its co-stimulatory factor SRC-1 was conducted by using time-resolved analytical techniques. Protein: glutathione-S-transferase (GST)-labeled human FXR protein (Invitrogen) • 2. Coactivator: Fluorescein-labeled steroid receptor coactivator (SRC2-2) (Invitrogen) • 3. Detection reagent: LanthaScreen Time-Resolved Fluorescence Analysis Kit (Invitrogen) • 1. The compound was prepared into a 10 mM DMSO stock solution and stored in a −20° C. refrigerator for a long time. • 2. The compound was diluted to 1 mM before the experiment, and then the compound was diluted 3-fold to 10 concentration points using DMSO. Then use buffer G (Invitrogen, PV4553) to dilute these 10 concentration points by 50 times to become a working fluid. Add 10 μl of each working solution to each well of a 384-well plate. • 3. Prepare a human FXR protein solution (final concentration 20 nM) in chilled buffer G and add 5 μl of human FXR protein solution to each well of a 384-well plate. • 4. Prepare a mix of buffer G containing 2 μM fluorescein-labeled steroid receptor coactivator and 20 nM GST antibody. • 5. Add 5 μl of the mixture prepared in Step 4 to a 384-well plate. • 6. Centrifuge the 384-well plate at 1000 g for 1 minute. • 7. Incubate for 1 hour at room temperature in the dark. • 8. Read the 384-well plate at 520 nm and 495 nm on an Envision 2104 plate reader. • 9. Calculate the EC50 value of the activation effect of the compound.

[1] = Mouse pharmacokinetic studies (IV and PO); type: in vivo, Male CD-1 mice; conditions: for PO F: PO 10 mg/kg vs IV 2.0 mg/kg; for Vd / AUC(0-t) / clearance / half-life / Cmax / Tmax: male, CD-1, plasma; for clearance: read-out: IV Cl; for half-life: read-out: IV T½ (converted)
Description: Mouse Pharmacokinetic Studies
Typical PK study procedure. For i.v. PK studies, a group of three fasted Male CD-1 mice were dosed with the compound (2.0 mg/kg, 0.50 mg/mL in 5% solutol in saline, clear solution), and 0.02 mL blood was collected at 0.0830, 0.250, 0.500, 1.00, 2.00, 4.00, 8.00, 24.0 h. For PO PK studies, a group of three fasted Male CD-1 mice were dosed with the compound (10 mg/kg, 1 mg/mL in 5% solutol in saline, clear solution), and 0.02 mL blood was collected at 0.250, 0.500, 1.00, 2.00, 4.00, 6.00, 8.00, 24.0 h. The blood was collected into EP tubes (containing EDTA K20.85-1.15 mg) and centrifuged at 3,000 g or 3,200 g at 4° C. for 10 min) and plasma was isolated and divided into two vials. One was used for bioanalysis and one was kept as backup. The samples were kept at −60° C. or below, until being analyzed by LC MS/MS. The samples were analyzed with AB SCIEX INSTRUMENTS LC-MS/MS AU-Triple Quad 6500 Plus and data were processed with Phoenix WinNonlin 6.3 (IV-noncompartmental model and PO-noncompartmental model).

hFXR-LBD-GAL4 = biological target: T2, hFXR-LBD-GAL4 (Homo sapiens, UniProt Q96RI1); assay: FXR agonist transactivation ability: luciferase reporter gene in HEK293T; type: cell-based; conditions: read-out: Cell activity
T2 construct: GAL4 (fusion partner); host or cells: HEK293T
T2 sequence (Q96RI1 262-486 limits assumed): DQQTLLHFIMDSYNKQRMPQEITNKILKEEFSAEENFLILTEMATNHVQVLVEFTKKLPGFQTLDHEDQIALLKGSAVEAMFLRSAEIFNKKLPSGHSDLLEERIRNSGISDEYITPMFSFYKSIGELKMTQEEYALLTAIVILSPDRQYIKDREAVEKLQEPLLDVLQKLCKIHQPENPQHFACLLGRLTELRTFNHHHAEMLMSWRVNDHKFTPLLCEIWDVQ
Description: FXR Agonist Transactivation Ability
Evaluation of the ability of the compound of the present invention to promote FXR transactivation was conducted by using luciferase reporter gene expression technology.
• 1. Cell line: HEK293T (Invitrogen) • 2. Expression plasmid: pBIND-hFXR-LBD-GAL4 (Promega), pGL4.35-luciferase (Promega) • 3. Cell culture medium: 10% serum and penicillin/streptomycin double antibody in DMEM medium • 4. Detection reagent: Steady-Glo fluorescence detection system (Promega). • 5. Transfection reagent: TransIT-293 Transfection Reagent (MIRUS BIO)
• 1. The compound was prepared into a 10 mM DMSO stock solution and stored in a −20° C. refrigerator for a long time. • 2. Resuscitation HEK293T cells were seeded in 10 cm culture dishes at a concentration of 5.5×10^6 and incubated for 16 hours at 37° C. in a 5% CO2 incubator. • 3. Return the transfection reagent to room temperature before transfection. The Trans-IT solution was added dropwise to Opti-MEM, and mixed by inversion for 5 minutes; the expression plasmid was added, mixed by inversion, and incubated at room temperature for 20 minutes. • 4. Add the transfection mixture from Step 3 to the prepared 10 cm dish in Step 2 and incubate for 5-6 hours in a 5% CO2 incubator. • 5. Dilute the compound 3 folds to 10 concentration points using DMSO; add 25 nl of compound per well in a 384-well plate using an Echo 550 sonic pipette; add HEK293T cells to the 384-well plate at a concentration of 15,000 cells/well; 37° C. incubate for 16-20 hours in a 5% CO2 incubator. • 6. Add 25 μl of Steady-Glo Fluorescent Reagent to each well and read the fluorescence on an Envision 2104 plate reader. • 7. Calculate the EC50 value of the activation of the compound.

[2] = IV 2.0 mg/kg, read-out: IV AUC 0-t
[3] = PO 10 mg/kg, read-out: PO AUC 0-t

| SMILES | EC50 (human FXR protein) [nM] | PO F [1] [%] | Vd ([1]; IV 2.0 mg/kg) [L/kg] | AUC(0-t) [1, 2] [ng·h/mL] | clearance ([1]; IV 2.0 mg/kg) [mL/min/kg] | half-life ([1]; IV 2.0 mg/kg) [min] | Cmax ([1]; PO 10 mg/kg) [ng/mL] | Tmax ([1]; PO 10 mg/kg) [min] | AUC(0-t) [1, 3] [ng·h/mL] | EC50 (hFXR-LBD-GAL4) [nM] |
| --- | --- | --- | --- | --- | --- | --- | --- | --- | --- | --- |
| O=C(O)c1ccc(F)cc1Oc1c(F)ccc2cc(OCc3c(-c4c(Cl)cccc4Cl)noc3C3CC3)ccc12 [Compound 44, 2-((6-((5-cyclopropyl-3-(2,6-dichlorophenyl)isoxazol-4-yl)methoxy)-2-fluoronaphthalen-1-yl)oxy)-4-fluorobenzoic acid] | < 50 | 23.7 | 2.06 | 559 | 60.4 | 73.8 | 384 | 56 | 646 | < 200 |
| O=C(O)c1cccc(Oc2ccc3cc(OCc4c(-c5c(Cl)cccc5Cl)noc4C4CC4)ccc3c2)n1 [Compound 11, 6-((6-((5-cyclopropyl-3-(2,6-dichlorophenyl)isoxazol-4-yl)methoxy)naphthalen-2-yl)oxy)picolinic acid] | < 50 | 33.3 | 0.294 | 4980 | 6.66 | 86.4 | 5730 | 30 | 8330 | 500 to 1000 |
| Cc1nc(Oc2cccc3cc(OCc4c(-c5c(Cl)cccc5Cl)noc4C4CC4)ccc23)ccc1C(=O)O [Compound 27, 6-((6-((5-cyclopropyl-3-(2,6-dichlorophenyl)isoxazol-4-yl)methoxy)naphthalen-1-yl)oxy)-2-methylnicotinic acid] | < 50 | 33.2 | 0.897 | 1690 | 19.7 | 96.6 | 2080 | 30 | 2780 | < 200 |
| Cc1nc(Oc2ccc3cc(OCc4c(-c5c(Cl)cccc5Cl)noc4C4CC4)ccc3c2)ccc1C(=O)O [Compound 10, 6-((6-((5-cyclopropyl-3-(2,6-dichlorophenyl)isoxazol-4-yl)methoxy)naphthalen-2-yl)oxy)-2-methylnicotinic acid] | 50 to 500 | 52.6 | 0.66 | 3550 | 9.26 | 96 | 5500 | 25 | 9360 | < 200 |

Results, then the compound that gave them:

| EC50 (human FXR protein) [nM] | PO F [1] [%] | Vd ([1]; IV 2.0 mg/kg) [L/kg] | AUC(0-t) [1, 2] [ng·h/mL] | clearance ([1]; IV 2.0 mg/kg) [mL/min/kg] | half-life ([1]; IV 2.0 mg/kg) [min] | Cmax ([1]; PO 10 mg/kg) [ng/mL] | Tmax ([1]; PO 10 mg/kg) [min] | AUC(0-t) [1, 3] [ng·h/mL] | EC50 (hFXR-LBD-GAL4) [nM] | SMILES |
| --- | --- | --- | --- | --- | --- | --- | --- | --- | --- | --- |
| < 50 | 28.6 | 0.495 | 1500 | 22.2 | 38.3 | 2150 | 30 | 2140 | < 200 | Cc1cc(C(=O)O)cnc1Oc1c(F)ccc2cc(OCc3c(-c4c(Cl)cccc4Cl)noc3C3CC3)ccc12 [Compound 47, 6-((6-((5-cyclopropyl-3-(2,6-dichlorophenyl)isoxazol-4-yl)methoxy)-2-fluoronaphthalen-1-yl)oxy)-5-methylnicotinic acid] |
| < 50 | 29.9 | 0.663 | 1180 | 28.4 | 58.6 | 2130 | 30 | 1740 | < 200 | Cc1cc(C(=O)O)cnc1Oc1cccc2cc(OCc3c(-c4c(Cl)cccc4Cl)noc3C3CC3)ccc12 [Compound 28, 6-((6-((5-cyclopropyl-3-(2,6-dichlorophenyl)isoxazol-4-yl)methoxy)naphthalen-1-yl)oxy)-5-methylnicotinic acid] |
| < 50 | 54.7 | 1.36 | 1400 | 24 | 61.8 | 1400 | 30 | 3810 | < 200 | O=C(O)c1ccc(Oc2ccc3c(F)c(OCc4c(-c5c(Cl)cccc5Cl)noc4C4CC4)ccc3c2)nc1 [Compound 32, 6-((6-((5-cyclopropyl-3-(2,6-dichlorophenyl)isoxazol-4-yl)methoxy)-5-fluoronaphthalen-2-yl)oxy)nicotinic acid] |
| < 50 | 12 | 2.94 | 330 | 105 | 56.4 | 209 | 18 | 198 | < 200 | O=C(O)c1ccnc(Oc2cccc3cc(OCc4c(-c5c(Cl)cccc5Cl)noc4C4CC4)ccc23)c1 [Compound 24, 2-((6-((5-cyclopropyl-3-(2,6-dichlorophenyl)isoxazol-4-yl)methoxy)naphthalen-1-yl)oxy)isonicotinic acid] |
